Assay results from patent publication US20110257176A1, “NITROGEN HETEROCYCLE DERIVATIVES AS PROTEASOME MODULATORS” (INSTITUT NATIONAL DE LA SANTE ET DE LA RECHERCHE MEDICALE …, priority 2008, published 2011).
Where a SMILES comes first, the peptide text is derived from it. The star is where a group is joined. Cbz = O=C(OCc1ccccc1)*

Key:
[1] = target: T1, rabbit reticulocyte 20S proteasome, chymotrypsin-like (CT-L) activity (Oryctolagus cuniculus, UniProt G1T4Q9); test: 20S proteasome chymotrypsin-like (CT-L) activity, Suc-LLVY-AMC hydrolysis; type: biochemical; conditions: rabbit 20S proteasome, pH 8, 37° C.
T1 construct: IC50 on chymotrypsin-like activity; other: rabbit 20S proteasome, pH 8, 37° C; Rabbit erythrocyte 20S proteasome was obtained from Boston Biochem, Cambridge, USA
T1 sequence (G1T4Q9 1-263): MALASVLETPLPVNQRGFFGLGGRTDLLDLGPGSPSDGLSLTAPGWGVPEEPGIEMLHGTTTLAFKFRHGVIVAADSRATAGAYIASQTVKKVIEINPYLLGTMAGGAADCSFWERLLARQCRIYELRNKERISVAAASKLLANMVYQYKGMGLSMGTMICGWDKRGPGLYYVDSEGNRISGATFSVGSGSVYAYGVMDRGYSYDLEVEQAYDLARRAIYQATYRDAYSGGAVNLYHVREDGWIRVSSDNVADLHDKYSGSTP
Protocol: (§1) Rabbit erythrocyte 20S proteasome was obtained from Boston Biochem, Cambridge, USA. The fluorogenic substrates Suc-LLVY-AMC, Boc-LRR-AMC and Z-LLE-βNA used to measure the proteasome activities CT-L, T-L and PA respectively were purchased from Bachem (France). Other reagents and solvents were purchased from commercial sources. Fluorescence was measured using a BMG Fluostar microplate reader.
(§2) Compounds 1-23 were tested for their potential to inhibit the CT-L, T-L and PA activities of the rabbit reticulocyte 20S proteasome. Enzyme activities were determined by monitoring the hydrolysis of the appropriate fluorogenic substrate (λexc=360, λem=465 nm for AMC substrates, and λexc=340, λem=405 nm for the βNA substrate) for 1 h at 37° C.
(§3) In the in vitro screening, each compound was tested in duplicate against the three activities, at 100 μM and 50 μM in the corresponding buffer. The buffer were (pH 8): 50 mM Tris, 150 mM NaCl, 10% (v/v) glycerol, 0.025% (w/v) SDS, and 3% (v/v) DMSO (CT-L and PA activities); 50 mM Tris, 150 mM NaCl, 10% (v/v) glycerol, and 3% (v/v) DMSO (T-L activity).
(§4) The inhibitory activity of compounds is expressed as IC50, which corresponds to the concentration of proteasome inhibitor leading to a loss of activity of 50%. The values of IC50 were calculated by fitting the experimental data to equation 1: % Inhibition=100×(1−Vi/V0)=100 [I]0/(IC50+[I]0), or equation 2: % Inhibition=100 [I]0^nH/(IC50^nH+[I]0^nH), where Vi is the initial rate in the presence of the inhibitor, V0 is the initial rate in the absence of the inhibitor, [I]0 is the inhibitor concentration, nH is the Hill number (FIG. 1).

[2] = target: rabbit reticulocyte 20S proteasome, post-acid (PA) activity (Oryctolagus cuniculus, UniProt G1T235); test: 20S proteasome post-acid (PA) activity, Z-LLE-βNA hydrolysis; type: biochemical; set-up: key to Inhibition of post-acid activity (NI): NI: No Inhibition; conditions: rabbit 20S proteasome; for Inhibition of post-acid activity (NI): screened at 100 μM and 50 μM; for inhibition at 100 µM: 100 μM inhibitor, read-out: % inhibition (inhibitor concentration) on post-acid activity
Sequence of rabbit reticulocyte 20S proteasome, post-acid (PA) activity (G1T235 entry or part of it): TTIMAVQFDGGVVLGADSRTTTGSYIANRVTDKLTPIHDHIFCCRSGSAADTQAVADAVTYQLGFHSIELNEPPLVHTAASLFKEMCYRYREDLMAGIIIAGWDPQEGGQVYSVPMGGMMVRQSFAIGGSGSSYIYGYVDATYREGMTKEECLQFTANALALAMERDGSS
Protocol: as §1, §2, §3, §4

[3] = system: rabbit reticulocyte 20S proteasome, trypsin-like (T-L) activity; test: 20S proteasome trypsin-like (T-L) activity, Boc-LRR-AMC hydrolysis; type: biochemical; set-up: key to Inhibition of trypsin-like activity (NI): NI: No Inhibition; conditions: rabbit 20S proteasome; for Activation × of trypsin-like activity: fold activation; for % inhibition (inhibitor concentration) on trypsin-like activity: 100 μM inhibitor
Protocol: as §1, §2, §3, §4

HEK-293 cells = test: Cell viability, XTT assay, HEK-293; type: cell-based; conditions: Homo sapiens, HEK293, 48 h, read-out: EC50, concentration inhibiting cell growth by 50%
Protocol: The cell survival was determined with the XTT assay. Human cells (HeLa from cervical carcinoma and HEK-293 from epithelial kidney) were obtained from Invitrogen (Cergy-Pontoise, France). The cells were grown at 37° C. in DMEM supplemented with 10% fetal bovine serum (Invitrogen) in a humidified atmosphere of 5% CO2 and 95% air.
5×10^3 cells in 100 μL culture medium were exposed for 48 h in 96-well plates to increasing concentrations of compounds: 5-100 μM, final concentration of DMSO is 1% (v/v). The culture medium is then replaced by 100 μL of DMEM F12 culture medium devoid of phenol red and containing a mixture of XTT (0.3 mg/mL) and PMS (8.3 nM) (XTT: 2,3-bis[2-methoxy-4-nitro-5-sulfophenyl-2H-tetrazolium-5-carboxyanilide sodium; PMS: phenazine methosulfate, both purchased from Sigma, Saint Quentin Fallavier, France). Cells were then incubated for 3 h at 37° C.
During this incubation, the mitochondrial deshydrogenases of viable cells hydrolyzed the tetrazolium cycle of XTT, leading to orange formazan crystals soluble in aqueous solution.
The orange color was measured at 485 nm using a BMG Fluostar microplate reader.
In control experiments, cells were treated by the vehicule (DMSO) at the same concentration than that used for the inhibitors.
The cytotoxicity activity of drags was expressed as the concentration inhibiting cell growth by 50% (EC50) calculated from the survival curves. The experimental data are fitted to the following equation, describing the relationship between % survival and drug concentration (C):
% cell survival=100−(Emax×C^n)/(C^n+EC50^n)
where C is the drug concentration; Emax is the maximum drug effect (%); EC50 is the concentration that produces one-half of the maximum effect; and n is the Hill constant, which describes the shape of the curve.

[4] = target: T2, human erythrocyte 20S proteasome, chymotrypsin-like (CT-L) activity (Homo sapiens, UniProt P28074); test: 20S proteasome chymotrypsin-like (CT-L) activity, Suc-LLVY-AMC hydrolysis; type: biochemical; conditions: pH 7.5
T2 construct: three activities of human erythrocyte 20S proteasome; from tissue; host or cells: human erythrocytes
Protocol: as §1, §4
(§5) Compounds 24, 25 and 31-35 were tested in duplicate against three activities of human erythrocyte 20S proteasome at 100 and 50 μM in the appropriate buffer (pH 7.5): 20 mM Tris HCl, 10% (v/v) glycerol, 0.01% (w/v) SDS and 2% DMSO (CT-L and PA activities); 20 mM Tris HCl, 10% (v/v) glycerol, and 2% DMSO (T-L activity). The inhibitory activities were analyzed as described above for compounds 1-23.

[5] = target: T3, human erythrocyte 20S proteasome, post-acid (PA) activity (Homo sapiens, UniProt P28072); test: 20S proteasome post-acid (PA) activity, Z-LLE-βNA hydrolysis; type: biochemical; set-up: key: NI: No Inhibition; conditions: screened at 100 and 50 μM
T3 construct: three activities of human erythrocyte 20S proteasome; from tissue; host or cells: human erythrocytes
Protocol: as §1, §4, §5

[6] = target: T4, human erythrocyte 20S proteasome, trypsin-like (T-L) activity (Homo sapiens, UniProt Q99436); test: 20S proteasome trypsin-like (T-L) activity, Boc-LRR-AMC hydrolysis; type: biochemical; set-up: key to Inhibition of trypsin-like activity (NI): NI: No Inhibition; conditions: screened at 100 and 50 μM
T4 construct: three activities of human erythrocyte 20S proteasome; from tissue; host or cells: human erythrocytes
Protocol: as §1, §4, §5

[7] = system: cellular proteasome in HEK-293 cells; test: Inhibition of proteasome in a cell assay: accumulation of ubiquitinylated proteins (Western blot); type: cell-based, Human; conditions: 16 h, 10 μM
Protocol: Indeed, if the proteasomes are inhibited, in particular the proteasome 26S, the degradation of ubiquitinalyted proteins should be blocked, and those proteins should accumulate.
240 000 HEK-293 cells were incubated for 16 h, in presence of oxadiazole derivatives at the concentration of 10 μM.
After extraction of the proteins (centrifugation of lysed cells), the concentration of proteins in the sample was determined with the BCA (Bicinchoninic Acid) protein Assay.
3 μg of proteins for each sample were deposited into a SDS-PAGE gel at 8%.

IC50 [1]	Inhibition of post-acid activity (NI) [2]	SMILES	EC50 (HEK-293 cells)	further results
3.51 ± 0.12 µM	NI	C=CCOc1ccc(C(=O)N(Cc2nc(-c3ccc(OC)c(OC)c3)no2)C(C)C)cc1 [Compound 19]	39.2 ± 2 µM	Activation × of trypsin-like activity ([3]; 100 μM compound): Activation × 11.5 (100 μM)
~18 µM	NI	CCOc1ccc(C(=O)N(Cc2nc(-c3ccc(OC)cc3)no2)C(C)C)cc1 [Compound 20]		Activation × of trypsin-like activity ([3]; 50 μM compound): Activation × 3.4 (50 μM)
144 ± 22 µM		O=C(Cc1cccc2ccccc12)Nc1cccc(-c2nnc(-c3ccccc3)o2)c1 [Compound 21]	26 ± 2.3 µM	inhibition at 100 µM [2]: 22%; Inhibition of trypsin-like activity (NI) ([3]; screened at 100 μM and 50 μM): NI
80 µM		COc1ccc(C(=O)NCCc2nnc(SCC(=O)Nc3cc(C)ccc3OC)n2C)cc1 [Compound 22]		inhibition at 100 µM [2]: 16%; % inhibition (inhibitor concentration) on trypsin-like activity [3]: 22% (100 μM)
85 µM	NI	COc1ccc(Cl)cc1NC(=O)CSc1nnc(C(CO)NC(=O)c2ccccc2)n1C (stereo not shown) [Compound 23]		% inhibition (inhibitor concentration) on trypsin-like activity [3]: 50% (100 μM)
		CC(C)N(Cc1nc(CCl)no1)C(=O)COc1ccc(Br)cc1 [Compound 31]	16.1 ± 0.5 µM	IC50 [4]: 2.69 ± 0.22 µM; Inhibition of post-acid activity (NI) [5]: NI; Inhibition of trypsin-like activity (NI) [6]: NI
		CC(C)C[C@@H](C=O)NC(=O)[C@H](CC(C)C)NC(=O)[C@H](CC(C)C)NC(=O)OCc1ccccc1 [MG132] (Cbz-Leu-Leu-Leu-aldehyde)		Accumulation of ubiquitinylated proteins (anti-ubiquitin Western blot) [7]: induce an accumulation of ubiquitinalyted proteins
